Experimental data published in ChEMBL document CHEMBL1159135, “Enzymatic fucosylations with purine-diphosphate-fucoses (PDP-Fucoses)” (Bioorg Med Chem Lett, 1996).

Experiments:
[1] = molecular target: T1, 4-galactosyl-N-acetylglucosaminide 3-alpha-L-fucosyltransferase FUT6 (Homo sapiens) (UniProt P51993); experiment: In vitro inhibition of Fucosyltransferase 6; set-up: concentration or dose not given beside the values; conditions: concentration not given here
T1 sequence (whole entry): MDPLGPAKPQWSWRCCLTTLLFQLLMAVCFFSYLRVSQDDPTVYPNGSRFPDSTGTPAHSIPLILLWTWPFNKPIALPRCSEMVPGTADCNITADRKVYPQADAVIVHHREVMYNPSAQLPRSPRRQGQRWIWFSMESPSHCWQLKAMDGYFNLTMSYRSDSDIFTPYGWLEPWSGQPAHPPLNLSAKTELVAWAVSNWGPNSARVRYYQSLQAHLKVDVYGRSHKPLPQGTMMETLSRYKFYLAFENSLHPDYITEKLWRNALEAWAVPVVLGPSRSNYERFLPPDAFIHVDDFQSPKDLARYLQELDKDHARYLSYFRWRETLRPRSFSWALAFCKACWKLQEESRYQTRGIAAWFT

[2] = molecular target: T2, 3-galactosyl-N-acetylglucosaminide 4-alpha-L-fucosyltransferase FUT3 (Homo sapiens) (UniProt P21217); experiment: In vitro inhibition of Fucosyltransferase 3; set-up: concentration or dose not given beside the values; conditions: concentration not given here
T2 sequence (whole entry): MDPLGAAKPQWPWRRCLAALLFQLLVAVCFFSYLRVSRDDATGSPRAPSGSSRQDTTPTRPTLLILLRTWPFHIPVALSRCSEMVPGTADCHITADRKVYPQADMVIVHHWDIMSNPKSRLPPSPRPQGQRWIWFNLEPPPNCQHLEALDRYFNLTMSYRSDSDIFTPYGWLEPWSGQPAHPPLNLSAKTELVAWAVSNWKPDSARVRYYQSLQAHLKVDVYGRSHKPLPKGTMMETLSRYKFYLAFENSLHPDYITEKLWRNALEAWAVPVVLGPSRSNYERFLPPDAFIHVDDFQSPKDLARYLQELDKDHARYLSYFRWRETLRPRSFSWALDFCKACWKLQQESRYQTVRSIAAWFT

Row | Compound | inhibition [1] | inhibition [2]
1 | C[C@@H]1O[C@H](OP(=O)(O)OP(=O)(O)OC[C@H]2O[C@@H](n3cnc4c(N)ncnc43)[C@H](O)[C@@H]2O)[C@@H](O)[C@@H](O)[C@H]1O | 60% | 76%
2 | C[C@@H]1O[C@H](OP(=O)(O)OP(=O)(O)OC[C@H]2O[C@@H](n3cnc4c(O)ncnc43)[C@H](O)[C@@H]2O)[C@@H](O)[C@@H](O)[C@H]1O | 72% | 68%
3 | C[C@@H]1O[C@H](OP(=O)(O)OP(=O)(O)OC[C@H]2O[C@@H](n3cnc4c(=O)[nH]c(=O)[nH]c43)[C@H](O)[C@@H]2O)[C@@H](O)[C@@H](O)[C@H]1O | 62% | 73%

Further lines, results first:

Row | inhibition [1] | inhibition [2] | Compound
4 | 0% | 0% | C[C@@H]1O[C@H](OP(=O)(O)OP(=O)(O)OP(=O)(O)OC[C@H]2O[C@@H](n3cnc4c(O)nc(N)nc43)[C@H](O)[C@@H]2O)[C@H](O)[C@@H](O)[C@@H]1O
5 | 83% | 96% | C[C@@H]1O[C@H](OP(=O)(O)OP(=O)(O)OC[C@H]2O[C@@H](n3cnc4c(O)nc(N)nc43)[C@H](O)[C@@H]2O)[C@H](O)[C@@H](O)[C@@H]1O
